In patent US10246456B2, “IRAK4 inhibiting agents” (BIOGEN MA INC., priority 2014, dated 2019):
pIC50: −log10 of the molar value.

Target: IRAK4 (Homo sapiens (Human), UniProt Q9NWZ3)
Experiment: IRAK-4 AlphaScreen biochemical kinase assay
Settings: 1 nM IRAK4, 1 mM ATP, 3.5 h at RT
In short: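 AlphaScreen read-out: streptavidin beads bind the biotinylated peptide and protein A beads bind the anti-phosphothreonine antibody, so energy transfer reports phosphorylation of the peptide. The kinase is human IRAK-4.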

Sequence of IRAK4 (Q9NWZ3 whole entry, species assumed): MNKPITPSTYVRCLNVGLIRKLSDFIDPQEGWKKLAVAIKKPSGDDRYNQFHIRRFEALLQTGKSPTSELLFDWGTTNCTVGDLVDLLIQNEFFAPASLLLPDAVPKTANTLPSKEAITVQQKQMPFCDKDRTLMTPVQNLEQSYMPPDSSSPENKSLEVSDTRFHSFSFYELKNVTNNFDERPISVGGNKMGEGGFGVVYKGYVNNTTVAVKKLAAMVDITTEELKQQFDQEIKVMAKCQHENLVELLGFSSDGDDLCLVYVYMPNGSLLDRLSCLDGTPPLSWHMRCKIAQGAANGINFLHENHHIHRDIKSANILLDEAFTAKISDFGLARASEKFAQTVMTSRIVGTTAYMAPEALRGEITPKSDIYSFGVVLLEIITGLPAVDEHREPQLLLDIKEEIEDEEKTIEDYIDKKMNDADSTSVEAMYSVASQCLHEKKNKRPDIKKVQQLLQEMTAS

SMILES	pIC50
C/C(=N/O)c1cccc(-c2cc(N(C)C(=O)OC(C)(C)C)c3cnn(-c4cccc(C)n4)c3c2)n1 [Example 226, (Z)-tert-butyl (6-(6-(1-(hydroxyimino)ethyl)pyridin-2-yl)-1-(6-methylpyridin-2-yl)-1H-indazol-4-yl)(methyl)carbamate]	< 5.00
CNc1cc(-c2cccc(/C(C)=N\O)n2)cc2c1cnn2-c1cccc(C)n1 [Example 227, (Z)-1-(6-(4-(methylamino)-1-(6-methylpyridin-2-yl)-1H-indazol-6-yl)pyridin-2-yl)ethanone oxime]	5.00 to 6.00
CCc1cccc(-n2ncc3ccc(-c4cccc(C(C)=O)n4)cc32)n1 [Example 228, 1-(6-(1-(6-ethylpyridin-2-yl)-1H-indazol-6-yl)pyridin-2-yl)ethanone]	6.00 to 7.00
CC(=O)c1cccc(-c2ccc3cnn(-c4ccccn4)c3c2)n1 [Example 229, 1-(6-(1-(pyridin-2-yl)-1H-indazol-6-yl)pyridin-2-yl)ethanone]	5.00 to 6.00
C/C(=N\O)c1cccc(-c2ccc3cnn(-c4ccccn4)c3c2)n1 [Example 230, (E)-1-(6-(1-(pyridin-2-yl)-1H-indazol-6-yl)pyridin-2-yl)ethanone oxime]	< 5.00
Cc1cccc(-n2ncc3ccc(-c4cc(N)cc(CN)n4)cc32)n1 [Example 231, 2-(aminomethyl)-6-(1-(6-methylpyridin-2-yl)-1H-indazol-6-yl)pyridin-4-amine]	> 7.00
Cc1cccc(-n2ncc3ccc(-c4cccc(C(C)N(C)C)n4)cc32)n1 (stereo not shown) [Example 232, N,N-dimethyl-1-(6-(1-(6-methylpyridin-2-yl)-1H-indazol-6-yl)pyridin-2-yl)ethanamine]	6.00 to 7.00
CC(=O)c1cccc(-c2cc(N(C)C)c3cnn(-c4cccc(C)n4)c3c2)n1 [Example 233, 1-(6-(4-(dimethylamino)-1-(6-methylpyridin-2-yl)-1H-indazol-6-yl)pyridin-2-yl)ethanone]	5.00 to 6.00
C/C(=N\O)c1cccc(-c2cc(N(C)C)c3cnn(-c4cccc(C)n4)c3c2)n1 [Example 234, (E)-1-(6-(4-(dimethylamino)-1-(6-methylpyridin-2-yl)-1H-indazol-6-yl)pyridin-2-yl)ethanone oxime]	6.00 to 7.00
CCc1cccc(-n2ncc3ccc(-c4cccc(/C(C)=N/O)n4)cc32)n1 [Example 235, (E)-1-(6-(1-(6-ethylpyridin-2-yl)-1H-indazol-6-yl)pyridin-2-yl)ethanone oxime]	5.00 to 6.00
CC(=O)c1cccc(-c2ccc3cnn(-c4cccc(C#N)n4)c3c2)n1 [Example 236, 6-(6-(6-acet6ylpyridin-2-yl)-1H-indazol-1-yl)picolinonitrile]	< 5.00
COC(=O)c1cccc(-n2ncc3ccc(-c4cccc(/C(C)=N/O)n4)cc32)n1 [Example 237, (E)-methyl 6-(6-(6-(1-(hydroxyimino)ethyl)pyridin-2-yl)-1H-indazol-1-yl)picolinate]	< 5.00
CC(=O)c1cccc(-c2ccc3cnn(-c4nc(C)cs4)c3c2)n1 [Example 239]	< 5.00
CC(N)c1cccc(-c2cc(F)c3cnn(-c4cccc(C(F)(F)F)n4)c3c2)n1 (stereo not shown) [Example 240, 1-(6-(4-fluoro-1-(6-(trifluoromethyl)pyridin-2-yl)-1H-indazol-6-yl)pyridin-2-yl)ethanamine]	> 7.00
Cc1cccc(-n2ncc3ccc(-c4ccc(F)c(C(C)N)n4)cc32)n1 (stereo not shown) [Example 242, 1-(3-fluoro-6-(1-(6-methylpyridin-2-yl)-1H-indazol-6-yl)pyridin-2-yl)ethanamine]	> 7.00
COC(=O)c1nc(-c2ccc3cnn(-c4cccc(C)n4)c3c2)ccc1N [Example 243, methyl 3-amino-6-(1-(6-methylpyridin-2-yl)-1H-indazol-6-yl)picolinate]	5.00 to 6.00
Cc1cccc(-n2ncc3ccc(-c4cccc(C(O)C(F)(F)F)n4)cc32)n1 (stereo not shown) [Example 244, 2,2,2-trifluoro-1-(6-(1-(6-methylpyridin-2-yl)-1H-indazol-6-yl)pyridin-2-yl)ethanol]	6.00 to 7.00
CCOc1cc(-c2cccc(C(C)N)n2)cc2c1cnn2-c1cccc(C)n1 (stereo not shown) [Example 245, 1-(6-(4-ethoxy-1-(6-methylpyridin-2-yl)-1H-indazol-6-yl)pyridin-2-yl)ethanamine]	> 7.00
COc1cc(-c2cccc(C(C)N)n2)cc2c1cnn2-c1cccc(C)n1 (stereo not shown) [Example 246, 1-(6-(4-methoxy-1-(6-methylpyridin-2-yl)-1H-indazol-6-yl)pyridin-2-yl)ethanamine]	> 7.00
Cc1cccc(-n2ncc3ccc(-c4cccc(C(N)CCO)n4)cc32)n1 (stereo not shown) [Example 247, 3-amino-3-(6-(1-(6-methylpyridin-2-yl)-1H-indazol-6-yl)pyridin-2-yl)propan-1-ol]	> 7.00
Cc1cccc(-n2ncc3ccc(-c4cccc(C(N)=O)n4)cc32)n1 [Example 248, 6-(1-(6-methylpyridin-2-yl)-1H-indazol-6-yl)picolinamide]	6.00 to 7.00
Cc1cccc(-n2ncc3ccc(-c4cccc(CC#N)n4)cc32)n1 [Example 249, 2-(6-(1-(6-methylpyridin-2-yl)-1H-indazol-6-yl)pyridin-2-yl)acetonitrile]	6.00 to 7.00

SMILES	pIC50
Cc1cccc(-n2ncc3c(O)cc(-c4cccc(C(C)N)n4)cc32)n1 (stereo not shown) [Example 250, 6-(6-(1-aminoethyl)pyridin-2-yl)-1-(6-methylpyridin-2-yl)-1H-indazol-4-ol]	> 7.00
Cc1cccc(-n2ncc3c(OCC4CC4)cc(-c4cccc(C(C)N)n4)cc32)n1 (stereo not shown) [Example 251]	6.00 to 7.00
Cc1cccc(-n2ncc3ccc(-c4csc(CN)n4)cc32)n1 [Example 252, (4-(1-(6-methylpyridin-2-yl)-1H-indazol-6-yl)thiazol-2-yl)methanamine]	6.00 to 7.00
CC(=O)NCc1cccc(-c2ccc3cnn(-c4cccc(C)n4)c3c2)n1 [Example 253, N-((6-(1-(6-methylpyridin-2-yl)-1H-indazol-6-yl)pyridin-2-yl)methyl)acetamide]	5.00 to 6.00
Cc1cccc(-n2ncc3ccc(-c4cccc(CCN)n4)cc32)n1 [Example 254, 2-(6-(1-(6-methylpyridin-2-yl)-1H-indazol-6-yl)pyridin-2-yl)ethanamine]	6.00 to 7.00
Cc1cccc(-n2ncc3ccc(-c4ccc(C(F)(F)F)c(C(C)N)n4)cc32)n1 (stereo not shown) [Example 255, 1-(6-(1-(6-methylpyridin-2-yl)-1H-indazol-6-yl)-3-(trifluoromethyl)pyridin-2-yl)ethanamine]	6.00 to 7.00
Cc1cccc(-n2ncc3ccc(-c4cc(N)cc(C(C)N)n4)cc32)n1 (stereo not shown) [Example 256, 2-(1-aminoethyl)-6-(1-(6-methylpyridin-2-yl)-1H-indazol-6-yl)pyridin-4-amine]	> 7.00
Cc1cccc(-n2ncc3ccc(-c4cn(C)c(CO)n4)cc32)n1 [Example 257, (1-methyl-4-(1-(6-methylpyridin-2-yl)-1H-indazol-6-yl)-1H-imidazol-2-yl)methanol]	> 7.00
Cc1cccc(-n2ncc3ccc(-c4cccc(C(N)C#N)n4)cc32)n1 (stereo not shown) [Example 258, 2-amino-2-(6-(1-(6-methylpyridin-2-yl)-1H-indazol-6-yl)pyridin-2-yl)acetonitrile]	6.00 to 7.00
Cc1cccc(-n2ncc3ccc(-c4cccc(C(N)C(F)(F)F)n4)cc32)n1 (stereo not shown) [Example 259, 2,2,2-trifluoro-1-(6-(1-(6-methylpyridin-2-yl)-1H-indazol-6-yl)pyridin-2-yl)ethanamine]	6.00 to 7.00
Cc1cccc(-n2ncc3ccc(-c4cccc(C(N)CC(=O)O)n4)cc32)n1 (stereo not shown) [Example 260, 3-amino-3-(6-(1-(6-methylpyridin-2-yl)-1H-indazol-6-yl)pyridin-2-yl)propanoic acid]	6.00 to 7.00
COC(=O)CC(N)c1cccc(-c2ccc3cnn(-c4cccc(C)n4)c3c2)n1 (stereo not shown) [Example 261, methyl 3-amino-3-(6-(1-(6-methylpyridin-2-yl)-1H-indazol-6-yl)pyridin-2-yl)propanoate]	> 7.00
Cc1cccc(-n2ncc3ccc(-c4cccc(C5(N)CC5)n4)cc32)n1 [Example 262, 1-(6-(1-(6-methylpyridin-2-yl)-1H-indazol-6-yl)pyridin-2-yl)cyclopropanamine]	6.00 to 7.00
CCC(N)c1cccc(-c2ccc3cnn(-c4cccc(C)n4)c3c2)n1 (stereo not shown) [Example 263, 1-(6-(1-(6-methylpyridin-2-yl)-1H-indazol-6-yl)pyridin-2-yl)propan-1-amine]	> 7.00
CCC[C@@H](N)c1cccc(-c2ccc3cnn(-c4cccc(C)n4)c3c2)n1 [Example 264, (R)-1-(6-(1-(6-methylpyridin-2-yl)-1H-indazol-6-yl)pyridin-2-yl)butan-1-amine]	> 7.00
CCC[C@H](N)c1cccc(-c2ccc3cnn(-c4cccc(C)n4)c3c2)n1 [Example 265, (S)-1-(6-(1-(6-methylpyridin-2-yl)-1H-indazol-6-yl)pyridin-2-yl)butan-1-amine]	> 7.00
Cc1cccc(-n2ncc3ccc(-c4ccc(Cl)c(C(C)N)n4)cc32)n1 (stereo not shown) [Example 266, 1-(3-chloro-6-(1-(6-methylpyridin-2-yl)-1H-indazol-6-yl)pyridin-2-yl)ethanamine]	6.00 to 7.00
Cc1cccc(-n2ncc3ccc(-c4cccc(C(N)C(N)=O)n4)cc32)n1 (stereo not shown) [Example 267, 2-amino-2-(6-(1-(6-methylpyridin-2-yl)-1H-indazol-6-yl)pyridin-2-yl)acetamide]	6.00 to 7.00
CCCC(N)c1cccc(-c2ccc3cnn(-c4cccc(C(F)(F)F)n4)c3c2)n1 (stereo not shown) [Example 268, 1-(6-(1-(6-(trifluoromethyl)pyridin-2-yl)-1H-indazol-6-yl)pyridin-2-yl)butan-1-amine]	> 7.00
CCC(N)c1cccc(-c2ccc3cnn(-c4cccc(C(N)=O)n4)c3c2)n1 (stereo not shown) [Example 269, 6-(6-(6-(1-aminopropyl)pyridin-2-yl)-1H-indazol-1-yl)picolinamide]	> 7.00
CC(N)c1cc(N)cc(-c2ccc3cnn(-c4cccc(C(F)(F)F)n4)c3c2)n1 (stereo not shown) [Example 270, 2-(1-aminoethyl)-6-(1-(6-(trifluoromethyl)pyridin-2-yl)-1H-indazol-6-yl)pyridin-4-amine]	> 7.00
